Results reported in patent US20160176867A1, “MODIFIED BET-PROTEIN-INHIBITING DIHYDROQUINOXALINONES AND DIHYDROPYRIDOPYRAZINONES” (BAYER PHARMA AKTIENGESELLSCHAFT, priority 2013, published 2016).

Key:
[1] = molecular target: T1, BRD4 bromo domain 2 [BRD4(2)] (Homo sapiens, UniProt O60885); assay: BRD4/acetylated peptide H4 binding assay (TR-FRET), BRD4 bromo domain 2; conditions: inhibition of BRD4(2)/Ac-H4 peptide interaction
T1 construct: N-terminally His6-tagged BRD4(2) (amino acids 357-445); made in house; host or cells: E. coli
Method in brief: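 IC50 comes from a 4-parameter fit over 0.1 nM–20 μM in duplicate, normalised to DMSO and no-protein controls. TR-FRET (Eu-streptavidin/anti-His-XL665) tracks His-tagged BRD4(2) 357-445 at 100 nM binding Ac-H4 peptide in HEPES pH 7.5 buffer. Incubation was 1 h at 22 °C, then at 4 °C ≥3 h up to overnight.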

[2] = molecular target: T2, BRD4 bromo domain 1 [BRD4(1)] (Homo sapiens, UniProt O60885); assay: BRD4/acetylated peptide H4 binding assay (TR-FRET), BRD4 bromo domain 1; conditions: inhibition of BRD4(1)/Ac-H4 peptide interaction
T2 construct: N-terminally His6-tagged BRD4(1) (amino acids 67-152); made in house; host or cells: E. coli
Method in brief: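 TR-FRET (665/620 nm ratio) measuring displacement of biotinylated tetra-acetylated H4 peptide from His6-BRD4(1) (aa 67-152, E. coli; typically 10 nM) at pH 7.5. Compound (11 concentrations, 0.1 nM–20 μM, duplicates) was preincubated 10 min at 22°C, then 1 h at 22°C and ≥3 h at 4°C; IC50 from 4-parameter fit normalized to DMSO and no-BRD4 controls.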

Row | SMILES | IC50 [1] [nM] | IC50 [2] [nM]
1 | C[C@@H]1C(=O)N(C)c2ccc(Nc3cccc(C(=O)N(C)C)c3)cc2N1Cc1ccccc1 [Example 107, 3-{[(3R)-4-benzyl-1,3-dimethyl-2-oxo-1,2,3,4-tetrahydroquinoxalin-6-yl]amino}-N,N-dimethylbenzamide] | 117 | 385
2 | Cc1ccc(Nc2ccc3c(n2)N(C2CCOCC2)[C@H](C)C(=O)N3C)cc1S(N)(=O)=O [Example 63, 5-{[(3R)-1,3-dimethyl-2-oxo-4-(tetrahydro-2H-pyran-4-yl)-1,2,3,4-tetrahydropyrido[2,3-b]pyrazin-6-yl]amino}-2-methylbenzene-sulphonamide] | 158 | 163
3 | CC(C)N1c2nc(Nc3cccc(C(=O)NC4CCN(C)CC4)c3)ccc2N(C)C(=O)[C@H]1C [Example 94, 3-{[(3R)-4-isopropyl-1,3-dimethyl-2-oxo-1,2,3,4-tetrahydropyrido[2,3-b]pyrazin-6-yl]amino}-N-(1-methylpiperidin-4-yl)benzamide] | 115 | 467
4 | CC(C)N1CCN(C(=O)c2cccc(Nc3ccc4c(n3)N(C3CCCCC3)[C@H](C)C(=O)N4C)c2)CC1 [Example 85] | 189 | 314
5 | COCCN1c2nc(Nc3cccc(S(=O)(=O)N4CCOCC4)c3)ccc2N(C)C(=O)[C@@H]1C (stereo in doubt) [Example 112, (3S)-4-(2-methoxyethyl)-1,3-dimethyl-6-{[3-(morpholin-4-ylsulphonyl)phenyl]amino}-3,4-dihydropyrido[2,3-b]pyrazin-2(1H)-one] | 57 | 5300
6 | C[C@@H]1C(=O)N(C)c2ccc(Nc3cccc(C(=O)N[C@H]4CC[C@H](N5CCN(CC6CC6)CC5)CC4)c3)cc2N1Cc1c(F)cccc1F [Example 22, N-{trans-4-[4-(Cyclopropylmethyl)piperazin-1-yl]cyclohexyl}-3-{[4-(2,6-difluorobenzyl)-1,3-dimethyl-2-oxo-1,2,3,4-tetrahydroquinoxalin-6-yl]amino}benzamide] | 157 | 708
7 | C[C@@H]1C(=O)N(C)c2ccc(Nc3cccc(C(=O)N[C@H]4CC[C@H](N5CCN(CC6CC6)CC5)CC4)c3)cc2N1C1CCOCC1 [Example 108, N-{trans-4-[4-(cyclopropylmethyl)piperazin-1-yl]cyclohexyl}-3-{[(3R)-1,3-dimethyl-2-oxo-4-(tetrahydro-2H-pyran-4-yl)-1,2,3,4-tetrahydroquinoxalin-6-yl]amino}benzamide] | 520 | 575
8 | C[C@@H]1C(=O)N(C)c2ccc(Nc3cccc(C(=O)N[C@H]4CC[C@H](N5CCN(CC6CC6)CC5)CC4)c3)nc2N1C1CCN(C(=O)OC(C)(C)C)CC1 [Example 102, tert-butyl 4-[(3R)-6-{[3-({trans-4-[4-(cyclopropl-methyl)piperazin-1-yl]cyclohexyl}carbamoyl)phenyl]amino}-1,3-dimethyl-2-oxo-2,3-dihydropyrido[2,3-b]pyrazin-4(1H)-yl]piperidine-1-carboxylate] | 687 | 788
9 | C[C@@H]1C(=O)N(C)c2ccc(Nc3cccc(S(=O)(=O)NCCN(C)C)c3)nc2N1C1CCNCC1 [Example 128, N-[2-(dimethylamino)ethyl]-3-{[(3R)-1,3-dimethyl-2-oxo-4-(piperidin-4-yl)-1,2,3,4-tetrahydropyrido[2,3-b]pyrazin-6-yl]amino}-benzenesulphonamide] | 137 | 66
10 | Cc1cccc(N2c3nc(Nc4cccc(S(=O)(=O)NC5CCN(C)CC5)c4)ccc3N(C)C(=O)C2C)c1 (stereo not shown) [Example 65, 3-{[1,3-dimethyl-4-(3-methylphenyl)-2-oxo-1,2,3,4-tetrahydropyrido-[2,3-b]pyrazin-6-yl]amino}-N-(1-methylpiperidin-4-yl)benzenesulphonamide] | 589 | 386
11 | COCCN1c2nc(Nc3cccc(C(=O)NC4CCN(C)CC4)c3)ccc2N(C)C(=O)[C@H]1C (stereo in doubt) [Example 119, 3-{[(3R)-4-(2-methoxyethyl)-1,3-dimethyl-2-oxo-1,2,3,4-tetrahydropyrido[2,3-b]pyrazin-6-yl]amino}-N-(1-methylpiperidin-4-yl)benzamide] | 428 | 742
12 | C[C@@H]1C(=O)N(C)c2ccc(Nc3cccc(S(=O)(=O)N4CCN(C)CC4)c3)cc2N1C1CCOCC1 [Example 71, (3R)-1,3-dimethyl-6-({3-[(4-methylpiperazin-1-yl)sulphonyl]phenl}-amino)-4-(tetrahydro-2H-pyran-4-yl)-3,4-dihydroquinoxalin-2(1H)-one] | 315 | 232
13 | COc1ccc(Nc2ccc3c(n2)N(C2CCOCC2)[C@H](C)C(=O)N3C)cc1C(=O)NC1CCN(C)CC1 [Example 81, 5-{[(3R)-1,3-dimethyl-2-oxo-4-(tetrahydro-2H-pyran-4-yl)-1,2,3,4-tetrahydropyrido[2,3-b]pyrazin-6-yl]amino}-2-methoxy-N-(1-methylpiperidin-4-yl)benzamide] | 227 | 210
14 | C[C@@H]1C(=O)N(C)c2ccc(Nc3cccc(C(=O)N4CCN(C)CC4)c3)nc2N1C1CCNCC1 [Example 130, (3R)-1,3-dimethyl-6-({3-[(4-methylpiperazin-1-yl)carbonyl]phenyl}amino)-4-(piperidin-4-yl)-3,4-dihydropyrido[2,3-b]pyrazin-2(1H)-one] | 178 | 206
15 | C[C@@H]1C(=O)N(C)c2ccc(Nc3cccc(S(=O)(=O)N4CCN(C)CC4)c3)nc2N1C1CCN(C(=O)OC(C)(C)C)CC1 [Example 62, tert-butyl 4-[(3R)-1,3-dimethyl-6-({3-[(4-methylpiperazin-1-yl)sulphonyl]phenyl}-amino)-2-oxo-2,3-dihydropyrido[2,3-b]pyrazin-4(1H)-yl]piperidine-1-carboxylate] | 133 | 256
16 | COc1ccc(CN2c3cc(Nc4cccc(S(=O)(=O)N5CCOCC5)c4)ccc3N(C)C(=O)[C@H]2C)cc1 [Example 11, (3R)-4-(4-Methoxybenzyl)-1,3-dimethyl-6-{[3-(morpholin-4-ylsulphonyl)phenyl]amino}-3,4-dihydroquinoxalin-2(1H)-one] | 48 | 208
17 | C[C@@H]1C(=O)N(C)c2ccc(Nc3cccc(C(=O)NC4CCN(C)CC4)c3)cc2N1C1CCOCC1 [Example 109, 3-{[(3R)-1,3-dimethyl-2-oxo-4-(tetrahydro-2H-pyran-4-yl)-1,2,3,4-tetrahydroquinoxalin-6-yl]amino}-N-(1-methylpiperidin-4-yl)benzamide] | 1120 | 521
18 | C[C@@H]1C(=O)N(C)c2ccc(Nc3cccc(C(=O)NC4CCN(C)CC4)c3)nc2N1C1CCN(C(=O)OC(C)(C)C)CC1 [Example 100, tert-butyl 4-[(3R)-1,3-dimethyl-6-({3-[(1-methylpiperidin-4-yl)carbamoyl]phenyl}amino)-2-oxo-2,3-dihydropyrido[2,3-b]pyrazin-4(1H)-yl]piperidine-1-carboxylate] | 462 | 555
19 | COc1c(Nc2ccc3c(n2)N(C2CCOCC2)[C@H](C)C(=O)N3C)cccc1C(=O)NC1CCN(C)CC1 [Example 103, 3-{[(3R)-1,3-dimethyl-2-oxo-4-(tetrahydro-2H-pyran-4-yl)-1,2,3,4-tetrahydropyrido[2,3-b]pyrazin-6-yl]amino}-2-methoxy-N-(1-melhylpiperidin-4-yl)benzamide] | 518 | 810
20 | C[C@H]1C(=O)N(C)c2ccc(Nc3cccc(C(=O)NC4CCN(C)CC4)c3)nc2N1c1ccc(F)cc1 (stereo in doubt) [Example 116, 3-{[(3S)-4-(4-fluorophenyl)-1,3-dimethyl-2-oxo-1,2,3,4-tetrahydropyrido[2,3-b]pyrazin-6-yl]amino}-N-(1-methylpiperidin-4-yl)benzamide] | > 40000 | 6750
21 | CCN(CC)S(=O)(=O)c1cccc(Nc2ccc3c(n2)N(C2CCOCC2)[C@H](C)C(=O)N3C)c1 [Example 32, 3-{[(3R)-1,3-dimethyl-2-oxo-4-(tetrahydro-2H-pyran-4-yl)-1,2,3,4-tetrahydropyrido[2,3-b]pyrazin-6-yl]amino}-N,N-diethylbenzene-sulphonamide] | 39 | 22
22 | C[C@@H]1C(=O)N(C)c2ccc(Nc3cccc(C(=O)N4CCN(C)CC4)c3)cc2N1C1CCOCC1 [Example 106, (3R)-1,3-dimethyl-6-({3-[(4-methylpiperazin-1-yl)carbonyl]phenyl}amino)-4-(tetrahydro-2H-pyran-4-yl)-3,4-dihydroquinoxalin-2(1H)-one] | 817 | 357
23 | C[C@@H]1C(=O)N(C)c2ccc(Nc3cccc(C(=O)NC4CCC(O)CC4)c3)nc2N1C1CCCCC1 (stereo partly drawn) [Example 86, 3-{[(3R)-4-cyclohexyl-1,3-dimethyl-2-oxo-1,2,3,4-tetrahydropyrido[2,3-b]pyrazin-6-yl]amino}-N-(4-hydroxycyclohexyl)-benzamide] | 127 | 322
